Experimental data reported in ChEMBL document CHEMBL4834421, “Deconstructing Noncovalent Kelch-like ECH-Associated Protein 1 (Keap1) Inhibitors into Fragments to Reconstruct New Potent Compounds” (J Med Chem, 2021).

How the values were obtained:
[1] = human, plasma, 3 h, 20 µM
[2] = pampa, 5 h
[3] = in vitro; details: CD1, mouse
[4] = Stability of compound in human plasma assessed as half life at 20 uM incubated for 3 hrs by LC-MS (SIM) assay; type: ADME, cell-free

Stabilty [1]	permeability [2]	half-life at 4 h, 10 µM ([3]; liver microsomes)	SMILES	also measured
Stable	–	–	CCCCC1CCCN1C(=O)[C@@H]1CCC[C@H](c2cccc(-n3ncc(C(=O)O)c3C3CC3)c2)C1 (some centres not stated)	–
–	< 2%	4 h	O=C(O)CN(c1cccc(-n2ncc(C(=O)O)c2C2CC2)c1)S(=O)(=O)c1ccccc1	–
Stable	< 2%	4 h	O=C(O)c1cnn(-c2cccc(NS(=O)(=O)c3ccccc3)c2)c1C1CC1	–
–	< 2%	–	CNC(=O)c1cnn(-c2cccc(NS(=O)(=O)c3ccccc3)c2)c1C1CC1	–
Stable	< 2%	4 h	COc1cccc(S(=O)(=O)N(CC(=O)O)c2cccc(-n3ncc(C(=O)O)c3[C@H]3C[C@@H]3c3ccccc3)c2)c1 (relative stereo)	–
–	–	–	CCN(CC)CCOC(=O)c1ccc(N)cc1 [PROCAINE]	half-life at 20 µM [4]: 2 min
–	–	–	CC(C)NCC(O)COc1cccc2ccccc12 (configuration not stated) [PROPRANOLOL]	half-life at 4 h, 10 µM ([3]; microsomes): 0.617 h
